According to patent US20250206729A1, “DUAL RAF AND TUBULIN INHIBITORS AND METHODS OF USE THEREOF” (Deciphera Pharmaceuticals, LLC, priority 2023, published 2025):
Like-named read-outs stand apart in the source and are kept apart here.

Assays:
Pa16c cells = experiment: Pa16c cell proliferation assay; format: cell-based; details: 67 to 72 h incubation, resazurin; read-out: Pa16c (inhibition of cell proliferation, IC50)
Description: Pa16c cells are obtained from Dr. Channing Der, University of North Carolina at Chapel Hill. Briefly, cells are grown in Dulbecco's Modified Eagle Medium supplemented with 10% characterized fetal bovine serum (Invitrogen, Carlsbad, CA) and 1% Penicillin/Streptomycin/L-Glutamine at 37° C., 5% CO2, and 95% humidity. Cells are expanded until reaching 70-95% confluency at which point they are sub-cultured or harvested for assay use. A serial dilution of test compound is dispensed into a 384-well black clear bottom plate in triplicate. 750 cells are added per well in 50 μL complete growth medium in the 384-well plate. Plates are incubated for 67 to 72 h at 37° C., 5% CO2, and 95% humidity. At the end of the incubation, 40 μL of a […] solution of resazurin (Sigma, St. Louis, MO) in PBS is added to each well of the plate and plates are incubated for an additional 18 to 24 h at 37° C., 5% CO2, and 95% humidity. Plates are read on a Synergy2 or equivalent reader (Biotek, Winooski, VT) using an excitation of 540 nm and an emission of 600 nm. Data is analyzed using Prism software (Graphpad, San Diego, CA) to calculate IC50 values.

HCT-116 cells = experiment: HCT-116 cell proliferation assay; format: cell-based; details: Homo sapiens
Description: HCT-116 cells (catalog #CCL-247) are obtained from the American Type Culture Collect (ATCC, Manassas, VA). Briefly, cells are grown in McCoy's 5A supplemented with 10% characterized fetal bovine serum (Invitrogen, Carlsbad, CA) and 1% Penicillin/Streptomycin/L-Glutamine at 37° C., 5% CO2, and 95% humidity. Cells are expanded until reaching 70-95% confluency at which point they are sub-cultured or harvested for assay use. A serial dilution of test compound is dispensed into a 384-well black clear bottom plate in triplicate. 375 cells are added per well in 50 μL complete growth medium in the 384-well plate. Plates are incubated for 67 to 72 h at 37° C., 5% CO2, and 95% humidity. At the end of the incubation, 40 μL of a […] solution of resazurin (Sigma, St. Louis, MO) in PBS is added to each well of the plate and plates are incubated for an additional 4 to 5 h at 37° C., 5% CO2, and 95% humidity. Plates are read on a Synergy2 or equivalent reader (Biotek, Winooski, VT) using an excitation of 540 nm and an emission of 600 nm. Data is analyzed using Prism software (Graphpad, San Diego, CA) to calculate IC50 values.

HPAF-II cells = experiment: HPAF-II cell proliferation assay; format: cell-based; details: Homo sapiens, HPAF-II; 115 to 120 h incubation, resazurin; read-out: HPAF-II (inhibition of cell proliferation, IC50)
Description: HPAF-II cells (catalog #CRL-1997) are obtained from the American Type Culture Collect (ATCC, Manassas, VA). Briefly, cells are grown in Minimum Essential Media supplemented with 10% characterized fetal bovine serum (Invitrogen, Carlsbad, CA) and 1% Penicillin/Streptomycin/L-Glutamine at 37° C., 5% CO2, and 95% humidity. Cells are expanded until reaching 70-95% confluency at which point they are sub-cultured or harvested for assay use. A serial dilution of test compound is dispensed into a 384-well black clear bottom plate in triplicate. 750 cells are added per well in 50 μL complete growth medium in the 384-well plate. Plates are incubated for 115 to 120 h at 37° C., 5% CO2, and 95% humidity. At the end of the incubation, 40 μL of a […] solution of resazurin (Sigma, St. Louis, MO) in PBS is added to each well of the plate and plates are incubated for an additional 18 to 24 h at 37° C., 5% CO2, and 95% humidity. Plates are read on a Synergy2 or equivalent reader (Biotek, Winooski, VT) using an excitation of 540 nm and an emission of 600 nm. Data is analyzed using Prism software (Graphpad, San Diego, CA) to calculate IC50 values.

MiaPaca-2 cells = experiment: MiaPaca-2 cell proliferation assay; format: cell-based; details: Homo sapiens, MIA PaCa-2
Description: Miapaca-2 cells (catalog #CRL-1420) are obtained from the American Type Culture Collect (ATTC, Manassas, VA). Briefly, cells were grown in DMEM supplemented with 10% characterized fetal bovine serum (Invitrogen, Carlsbad, CA), 2.5% New Zealand sourced horse serum and 1% Penicillin/Streptomycin/L-Glutamine at 37° C., 5% CO2, and 95% humidity. Cells are expanded until reaching 70-95% confluency at which point they are sub-cultured or harvested for assay use. A serial dilution of test compound is dispensed into a 384-well black clear bottom plate in triplicate. Seven hundred fifty cells are added per well in 50 μL complete growth medium in the 384-well plate. Plates are incubated for 67-72 h at 37° C., 5% CO2, and 95% humidity. At the end of the incubation, 10 μL of a 440 μM solution of resazurin (Sigma, St. Louis, MO) in PBS is added to each well of the plate and plates are incubated for an additional 5-6 h at 37° C., 5% CO2, and 95% humidity. Plates are read on a Synergy2 or equivalent reader (Biotek, Winooski VT) using an excitation of 540 nm and an emission of 600 nm. Data is analyzed using Prism software (GraphPad, San Diego, CA) to calculate IC50 values.

[1] = biological target: T1, C-Raf kinase (SEQ ID NO: 2) (Homo sapiens, UniProt P04049, Y340D/Y341D); experiment: Biochemical assay for C-Raf (coupled pyruvate kinase/lactate dehydrogenase); details: 1 mM ATP; read-out: CRAF (inhibition of biochemical activity, IC50)
T1 construct: C-Raf residues 306-end; Y340D, Y341D with N-; GST (N); purchased Sigma

[2] = biological target: T2, B-Raf kinase (SEQ ID NO: 1) (Homo sapiens, UniProt P15056); experiment: Biochemical assay for B-Raf (coupled pyruvate kinase/lactate dehydrogenase); details: 1 mM ATP; read-out: BRAF (inhibition of biochemical activity, IC50)
T2 construct: GST (N); purchased Sigma

[3] = HCT-116, 67 to 72 h incubation, resazurin, read-out: HCT-116 (inhibition of cell proliferation, IC50)
[4] = 67-72 h incubation, resazurin, read-out: MiaPaca-2 (inhibition of cell proliferation, IC50)

T1 sequence (P04049 307-648 Y340D/Y341D): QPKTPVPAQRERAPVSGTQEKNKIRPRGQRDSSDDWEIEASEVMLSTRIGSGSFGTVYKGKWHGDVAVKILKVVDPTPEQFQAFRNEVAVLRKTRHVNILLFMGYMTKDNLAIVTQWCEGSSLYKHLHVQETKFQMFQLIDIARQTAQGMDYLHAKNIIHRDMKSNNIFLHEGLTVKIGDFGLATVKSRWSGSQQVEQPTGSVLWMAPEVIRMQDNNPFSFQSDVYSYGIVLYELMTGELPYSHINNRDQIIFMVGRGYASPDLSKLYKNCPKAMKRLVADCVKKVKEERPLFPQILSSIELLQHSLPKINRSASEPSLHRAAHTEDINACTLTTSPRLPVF
T2 sequence (P15056 416-766): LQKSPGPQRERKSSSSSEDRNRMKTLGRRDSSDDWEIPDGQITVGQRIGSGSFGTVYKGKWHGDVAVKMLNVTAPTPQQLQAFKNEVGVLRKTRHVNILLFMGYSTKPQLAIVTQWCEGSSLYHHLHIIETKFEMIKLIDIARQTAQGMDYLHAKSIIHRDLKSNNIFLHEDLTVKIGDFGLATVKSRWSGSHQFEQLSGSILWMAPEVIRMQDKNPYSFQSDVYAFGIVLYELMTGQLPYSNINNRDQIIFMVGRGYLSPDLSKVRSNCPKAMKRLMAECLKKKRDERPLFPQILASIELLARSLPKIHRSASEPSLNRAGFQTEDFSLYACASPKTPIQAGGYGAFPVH

Compound | IC50 (HCT-116 cells; [3]) [nM] | IC50 (MiaPaca-2 cells; [4]) [nM] | IC50 [1] [nM] | IC50 [2] [nM] | IC50 (HCT-116 cells; Table 4, mutant KRAS colorectal cancer cell line, anti-proliferative, read-out: HCT-116) [nM] | IC50 (MiaPaca-2 cells; Table 4, mutant KRAS pancreatic cancer cell line, anti-proliferative, read-out: MiaPaca-2) [nM] | IC50 (Pa16c cells) [nM] | IC50 (HPAF-II cells) [nM]
Cc1ccc(NC(=O)c2cnc(C(F)(F)F)nc2)cc1-c1cc(N[C@H](C)CO)nc(N2CCOCC2)c1 [Example 12] | 1000 to 10000 | 500 to 1000 | 100 to 500 | 500 to 1000 | – | – | 1000 to 10000 | 1000 to 10000
Cc1ccc(NC(=O)c2cncc(Cl)c2)cc1-c1cc(N[C@H](C)CO)nc(N2CCOCC2)c1 [Example 16] | 500 to 1000 | 100 to 500 | < 100 | < 100 | – | – | 1000 to 10000 | 500 to 1000
Cc1ccc(NC(=O)c2cnc(C3CC3)nc2)cc1-c1cc(N[C@H](C)CO)nc(N2CCOCC2)c1 [Example 17] | 500 to 1000 | 500 to 1000 | < 100 | 100 to 500 | – | – | 1000 to 10000 | 500 to 1000
Cc1ccc(NC(=O)c2cc(C(F)(F)F)cnn2)cc1-c1ccnc(N2C[C@@H](C)O[C@@H](C)C2)c1 [Example 84] | 1000 to 10000 | 1000 to 10000 | 1000 to 10000 | 1000 to 10000 | – | – | – | 1000 to 10000
CCCS(=O)(=O)Nc1ccc(F)c(C(=O)c2c[nH]c3ncc(-c4ccc(Cl)cc4)cc23)c1F [Vemurafenib, vemurafenib, reference compound] | – | – | – | – | 1000 to 10000 | 1000 to 10000 | – | –

More lines, main results first:

IC50 (HCT-116 cells; [3]) [nM] | IC50 (MiaPaca-2 cells; [4]) [nM] | IC50 [1] [nM] | IC50 [2] [nM] | IC50 (HCT-116 cells; Table 4, mutant KRAS colorectal cancer cell line, anti-proliferative, read-out: HCT-116) [nM] | IC50 (MiaPaca-2 cells; Table 4, mutant KRAS pancreatic cancer cell line, anti-proliferative, read-out: MiaPaca-2) [nM] | Compound | IC50 (Pa16c cells) [nM] | IC50 (HPAF-II cells) [nM]
100 to 500 | 100 to 500 | 500 to 1000 | 1000 to 10000 | – | – | Cc1ccc(NC(=O)c2cnc(C(F)(F)F)nc2)cc1-c1cc(OCCO)nc(N2CCOCC2)c1 [Example 11] | 500 to 1000 | 100 to 500
100 to 500 | 500 to 1000 | < 100 | < 100 | – | – | Cc1ccc(NC(=O)c2cncc(C(C)C)c2)cc1-c1cc(N[C@H](C)CO)nc(N2CCOCC2)c1 [Example 13] | 1000 to 10000 | 500 to 1000
< 100 | < 100 | < 100 | 100 to 500 | – | – | Cc1ccc(NC(=O)c2cc(Cl)cnn2)cc1-c1cc(N[C@H](C)CO)nc(N2CCOCC2)c1 [Example 15] | 100 to 500 | 100 to 500
100 to 500 | 100 to 500 | < 100 | < 100 | – | – | Cc1ccc(NC(=O)c2cncc(C3CC3)c2)cc1-c1cc(N[C@H](C)CO)nc(N2CCOCC2)c1 [Example 18] | 1000 to 10000 | 100 to 500
100 to 500 | 100 to 500 | < 100 | < 100 | – | – | Cc1cc(-c2cc(NC(=O)c3cc(C4CC4)cnn3)ccc2C)cc(N2CCOCC2)n1 [Example 20] | 1000 to 10000 | 100 to 500
